Assay results: US9365541B2, “Compounds for use in the treatment of parasitic diseases” (IRBM—SCIENCE PARK S.P.A., priority 2012, dated 2016)

Assays:
human HDAC1 = target: T1, human HDAC1 (Homo sapiens, UniProt Q13547); experiment: Homo sapiens HDAC1 inhibition assay (Fluor-de-Lys, enzymatic); type: biochemical; details: human HDAC enzymatic assay; read-out: hHDAC IC50
T1 construct: made in house; host or cells: HeLa (ATCC CCL-2), mammalian cells
Outline: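 Product developed with trypsin developer containing 2 μM TSA to stop the reaction; fluorescence measures deacetylase activity, inversely related to inhibition.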

[1] = system: HDAC1 (deacetylase activity inside HeLa cells); experiment: Cell based HDAC1 inhibition (HDAC HeLa Cell based assay); parameters: species or system human
Experimental: After result normalization using positive and negative controls, compound potency is determined by fitting the following equation: % inh=Ymin+(Ymax−Ymin)/(1+(X/IC50)^slope)) Where: • Ymin=minimum percentage inhibition • Ymax=maximum percentage inhibition • IC50=the concentration of the compound at which 50% inhibition is reached • Slope=the slope of the curve calculated at the IC50 Cell Based HDAC1 Inhibition Overview:
The aim of the assay is to evaluate the inhibition of the deacetylase activity inside the cells. To such goal a membrane permeable substrate is added to HeLa cells. After the incubation period, cells are lysed and the deacetylated substrate is evaluated using the same principles previously described for the human HDAC1 assay.
HeLa cells (HeLa, cervix adnocarcinoma, ATCC® Number: CCL-2™) frozen stock are derived from cell cultured in DMEM, glutamine, penicilline, streptomicine and 10% fetal bovine serum (FBS). Stock are frozen in 90% FBD and 10% DMSO.
b) HDAC Substrate Buffer System
Reagents of the HDAC Fluorescent Activity Assay are purchased from Enzo Life Sciences (http://www.enzolifesciences.com/BML-AK500/fluor-de-lys-hdac-fluorometric-activity-assay-kit/) and feature the Fluor-de-Lys™ Substrate/Developer System. The reagents include the proprietary fluorescent substrate as a 50 mM stock solution (KI-104), and the Developer Concentrate (KI-105). Deacetylation of the lysine residue of the Fluor-de-Lys substrate is quantified by measuring the fluorescence (ex 360 nm, em 460 nm) after addition of the proprietary developer.
TSA is provided as a 10 mM stock solution in 100% dimethylsulfoxide (DMSO).
Test compounds should be prepared in 100% DMSO and transferred to the assay by a nano volume dispenser to reach the appropriate concentration and the appropriate DMSO concentration (0.25%) in the reaction.
GIBCO Dulbecco's Mod Eagle Medium without Phenol Red (cat n° 11880) Completed with 10% FCS—fetal bovine serum—, 1% Penicillin-Streptomycin (10 mg/ml) and 1% L-Glutamine 200 mM (100×)
f) Diluted Substrate Solution
The commercial 50 mM Fluor-de-Lys substrate (KI-104) is diluted to 400 uM in Assay Buffer prior to each use.
g) Diluted Stop-Lysis-Developer Solution
The reaction is performed in 384-well microplate in a final volume of 20 μl/well+10 μl/well of Stop-Lysis-Developer Mix, as following: • seed 10000 HeLa cells/well, from the frozen aliquots, in 15 μl in assay medium and let recover overnight; • transfer compounds to the assay by nano-volume transfer machine in order to reach the desired assay concentration and a final DMSO concentration of 0.25%; • pre-incubate compounds on cells for 30 min; • start the reaction by adding 5 μl of the Diluted Substrate Solution; • stop the reaction after 4 h incubation at 37° C. 5% CO2 by adding 10 μl of Diluted Stop-Lysis-Developer Solution; • incubate 20 min at 37° C.; • after 10 min at RT measure the fluorescence at excitation 360 nm and emission 460 nm
Negative controls (0% Effect) are produced by addition of DMSO to the proper wells.
Positive controls (100% Effect) are produced by addition of 4 μM TSA to the proper wells.
After result normalization using positive and negative controls, compound potency is determined by fitting the following equation: % inh=Ymin+(Ymax−Ymin)/(1+(X/EC50)^slope)) Where: • Ymin=minimum percentage effect • Ymax=maximum percentage effect • EC50=the concentration of the compound at which 50% effect is reached • Slope=the slope of the curve calculated at the EC50 In Vitro Culture of P. falciparum Parasites

[2] = system: Plasmodium falciparum 3D7; experiment: P. falciparum growth inhibition assay (Pf-LDH); type: cell-based; details: for Selectivity Index: HDAC HeLa Cell Based IC50 (μM)/Pf-LDH EC50 (μM); for EC50: Plasmodium falciparum, Erythrocyte, P. falciparum 3D7 infected erythrocytes, 72 h incubation, PfLDH readout
Outline: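 P. falciparum 3D7 (chloroquine-sensitive) at 0.25% parasitemia and 2% hematocrit was incubated with compound for 72 h at 37° C under 4% CO2/3% O2/93% N2. After freeze-thaw, PfLDH activity was read at 650 nm with lactate/APAD/NBT/diaphorase mix (pH 8.0).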

T1 sequence (Q13547 whole entry): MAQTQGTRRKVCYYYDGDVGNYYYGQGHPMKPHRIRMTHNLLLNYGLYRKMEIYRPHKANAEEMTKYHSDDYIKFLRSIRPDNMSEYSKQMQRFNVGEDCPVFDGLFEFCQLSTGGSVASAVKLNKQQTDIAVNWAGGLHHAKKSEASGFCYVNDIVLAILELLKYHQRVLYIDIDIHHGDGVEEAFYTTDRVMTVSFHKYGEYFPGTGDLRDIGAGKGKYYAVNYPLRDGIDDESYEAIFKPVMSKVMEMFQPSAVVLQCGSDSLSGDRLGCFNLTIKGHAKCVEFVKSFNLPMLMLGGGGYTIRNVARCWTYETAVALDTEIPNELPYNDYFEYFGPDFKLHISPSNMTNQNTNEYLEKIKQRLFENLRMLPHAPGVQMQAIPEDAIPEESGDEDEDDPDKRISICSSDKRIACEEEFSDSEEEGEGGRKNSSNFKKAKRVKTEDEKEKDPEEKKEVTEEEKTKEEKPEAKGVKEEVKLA

## CNC(=O)CCCCC[C@H](NC(=O)c1cncs1)c1ncc(-c2ccc(-c3cscn3)cc2)[nH]1 [compound 232, (S)-N-(7-(methylamino)-7-oxo-1-(5-(4-(thiazol-4-yl)phenyl)-1H-imidazol-2-yl)heptyl)thiazole-5-carboxamide]
Human HDAC1
  IC50: 1 to 5 µM
[1]
  IC50: > 5 µM
[2]
  Selectivity Index: 14.2
  EC50: < 1 µM

## CNC(=O)CCCCC[C@H](NC(=O)c1cncs1)c1ncc(-c2ccc(-c3nccs3)cc2)[nH]1 [compound 231, (S)-N-(7-(methylamino)-7-oxo-1-(5-(4-(thiazol-2-yl)phenyl)-1H-imidazol-2-yl)heptyl)thiazole-5-carboxamide]
Human HDAC1
  IC50: 1 to 5 µM
[1]
  IC50: > 5 µM
[2]
  Selectivity Index: 10.6
  EC50: < 1 µM

## CNC(=O)CCCCC[C@H](NC(=O)c1cncs1)c1ncc(-c2ccc(-c3ccnn3C)cc2)[nH]1 [compound 229, (S)-N-(1-(5-(4-(1-methyl-1H-pyrazol-5-yl)phenyl)-1H-imidazol-2-yl)-7-(methylamino)-7-oxoheptyl)thiazole-5-carboxamide]
Human HDAC1
  IC50: > 5 µM
[1]
  IC50: > 5 µM
[2]
  Selectivity Index: 5.6
  EC50: 1 to 5 µM

## CNC(=O)CCCCC[C@H](NC(=O)c1cnn(C(C)C)c1)c1ncc(-c2ccc3cc(OC)ncc3c2)[nH]1 [compound 227, (S)-1-isopropyl-N-(1-(5-(3-methoxyisoquinolin-7-yl)-1H-imidazol-2-yl)-7-(methylamino)-7-oxoheptyl)-1H-pyrazole-4-carboxamide]
Human HDAC1
  IC50: < 1 µM
[1]
  IC50: 1 to 5 µM
[2]
  Selectivity Index: 23.5
  EC50: < 1 µM

## CNC(=O)CCCCC[C@H](NC(=O)c1cncs1)c1ncc(-c2ccc(-c3cnn(C)c3)cc2)[nH]1 [compound 228, (S)-N-(1-(5-(4-(1-methyl-1H-pyrazol-4-yl)phenyl)-1H-imidazol-2-yl)-7-(methylamino)-7-oxoheptyl)thiazole-5-carboxamide]
Human HDAC1
  IC50: > 5 µM
[1]
  IC50: > 5 µM
[2]
  Selectivity Index: 6.7
  EC50: 1 to 5 µM

## CNC(=O)CCCCC[C@H](NC(=O)c1cncs1)c1ncc(-c2ccc(-c3cncs3)cc2)[nH]1 [compound 230, (S)-N-(7-(methylamino)-7-oxo-1-(5-(4-(thiazol-5-yl)phenyl)-1H-imidazol-2-yl)heptyl)thiazole-5-carboxamide]
Human HDAC1
  IC50: 1 to 5 µM
[1]
  IC50: > 5 µM
[2]
  Selectivity Index: 3.6
  EC50: 1 to 5 µM

## CNC(=O)CCCCC[C@H](NC(=O)c1cncs1)c1ncc(-c2cc3cc(OC)ccc3[nH]2)[nH]1 [Entry 54, (S)-N-(1-(5-(5-methoxy-1H-indol-2-yl)-1H-imidazol-2-yl)-7-(methylamino)-7-oxoheptyl)thiazole-5-carboxamide]
Human HDAC1
  IC50: 1 to 5 µM
[2]
  EC50: 1 to 5 µM

## CNC(=O)CCCCC[C@H](NC(=O)Cn1cc2ccccc2n1)c1ncc(-c2ccc(-c3ccn(C)n3)cc2)[nH]1 [Entry 169, (S)-7-(2-(2H-indazol-2-yl)acetamido)-N-methyl-7-(5-(4-(1-methyl-1H-pyrazol-3-yl)phenyl)-1H-imidazol-2-yl)heptanamide]
Human HDAC1
  IC50: < 1 µM
[2]
  EC50: 1 to 5 µM

## CNC(=O)CCCCC[C@H](NC(=O)OCc1ccccc1)c1ncc(-c2ccc(-c3ccn(C)n3)cc2)[nH]1 [Entry 182, (S)-benzyl(1-(5-(4-(1-methyl-1H-pyrazol-3-yl)phenyl)-1H-imidazol-2-yl)-7-(methylamino)-7-oxoheptyl)carbamate]
Human HDAC1
  IC50: 1 to 5 µM
[2]
  EC50: 1 to 5 µM

## CNC(=O)CCCCC[C@H](NC(=O)CCc1nnc(C)[nH]1)c1ncc(-c2ccc3ccncc3c2)[nH]1 [Entry 167]
Human HDAC1
  IC50: 1 to 5 µM
[2]
  EC50: 1 to 5 µM

## CNC(=O)CCCCC[C@H](NC(=O)Cc1ncccn1)c1ncc(-c2ccc(-c3ccn(C)n3)cc2)[nH]1 [Entry 211]
Human HDAC1
  IC50: > 5 µM
[2]
  EC50: > 5 µM

## CNC(=O)CCCCC[C@H](NC(=O)C1CN(C)C1)c1ncc(-c2cc3ccccc3nc2OC)[nH]1 [Entry 98, (S)-N-(1-(5-(2-methoxyquinolin-3-yl)-1H-imidazol-2-yl)-7-(methylamino)-7-oxoheptyl)-1-methylazetidine-3-carboxamide]
Human HDAC1
  IC50: 1 to 5 µM
[2]
  EC50: 1 to 5 µM

## CNC(=O)CCCCC[C@H](NC(=O)c1cc(C(C)C)on1)c1ncc(-c2ccc3ccncc3c2)[nH]1 [Entry 189, (S)-5-isopropyl-N-(1-(5-(isoquinolin-7-yl)-1H-imidazol-2-yl)-7-(methylamino)-7-oxoheptyl)isoxazole-3-carboxamide]
Human HDAC1
  IC50: 1 to 5 µM
[2]
  EC50: 1 to 5 µM

## CNC(=O)CCCCC[C@H](NC(=O)c1cncs1)c1ncc(-c2ccc3c(cnn3C)c2)[nH]1 [Entry 191, (S)-N-(1-(5-(1-methyl-1H-indazol-5-yl)-1H-imidazol-2-yl)-7-(methylamino)-7-oxoheptyl)thiazole-5-carboxamide]
Human HDAC1
  IC50: 1 to 5 µM
[2]
  EC50: < 1 µM

## CNC(=O)CCCCC[C@H](NC(=O)C12CCN(CC1)CC2)c1ncc(-c2cc3ccccc3[nH]c2=O)[nH]1 [Entry 204, (S)-N-(7-(methylamino)-7-oxo-1-(5-(2-oxo-1,2-dihydroquinolin-3-yl)-1H-imidazol-2-yl)heptyl)quinuclidine-4-carboxamide]
Human HDAC1
  IC50: 1 to 5 µM
[2]
  EC50: > 5 µM
